We go through 1 compound from EPA's ToxValDB 9.5.

One may read the LOAEL as the lowest tested level that showed an adverse finding. What is called NOAEL is the highest tested level that showed no adverse finding.

The subject of this data set is Megascops sp. The conditions noted are these: oral.

Take `[F-].[Na+]` [Sodium fluoride]: the LOAEL was 32 mg/kg-day and the NOAEL came out at 7.8 mg/kg-day.
